The values below come from ChEMBL document CHEMBL5154752, “CLIPSing Melanotan-II to Discover Multiple Functionally Selective hMCR Agonists” (J Med Chem, 2022).

Test [1] concerns the target T1, Melanocyte-stimulating hormone receptor (Homo sapiens, UniProt Q01726). Description: Displacement of [125I]NDP-alpha-MSH from human MC1R expressed in HEK293 cells by competitive binding assay. In kind it is cell-based. On the technique in general: In a radioligand displacement assay an active substance lowers the binding of a labelled ligand.
Target sequence in this assay (Q01726 whole entry): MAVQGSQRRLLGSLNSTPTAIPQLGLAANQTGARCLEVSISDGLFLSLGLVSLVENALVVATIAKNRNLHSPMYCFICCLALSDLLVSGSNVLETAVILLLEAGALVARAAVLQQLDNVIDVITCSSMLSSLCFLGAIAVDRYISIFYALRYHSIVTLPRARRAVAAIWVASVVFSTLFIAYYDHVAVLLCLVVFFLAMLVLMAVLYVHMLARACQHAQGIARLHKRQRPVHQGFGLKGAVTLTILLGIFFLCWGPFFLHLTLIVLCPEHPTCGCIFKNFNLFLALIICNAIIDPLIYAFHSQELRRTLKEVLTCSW
For test [2], the target named is T2, Melanocortin receptor 3 (Homo sapiens, UniProt P41968). Description: Displacement of [125I]NDP-alpha-MSH from human MC3R expressed in HEK293 cells by competitive binding assay. In kind it is cell-based.
Test [3] has as its target T3, Melanocortin receptor 4 (Homo sapiens, UniProt P32245). In words: Displacement of [125I]NDP-alpha-MSH from human MC4R expressed in HEK293 cells by competitive binding assay. In kind it is cell-based.
Test [4] has as its target T4, Melanocortin receptor 5 (Homo sapiens, UniProt P33032). Description: Displacement of [125I]NDP-alpha-MSH from human MC5R expressed in HEK293 cells by competitive binding assay. In kind it is cell-based.
Test [5] deals with T4, Melanocortin receptor 5. Description: Agonist activity at human MC5R expressed in HEK293 cells assessed as cAMP accumulation at 10 uM by fluorescence based analysis relative to control. In kind it is functional, cell-based. (cAMP levels reflect the balance of adenylyl cyclase and phosphodiesterase activity.)
Test [6] has as its target T1, Melanocyte-stimulating hormone receptor. Description: Agonist activity at human MC1R expressed in HEK293 cells assessed as maximal intracellular cAMP accumulation by fluorescence based analysis. Format: functional, cell-based.
Target sequence in this assay (Q01726 whole entry): as above
The target in test [7] is T4, Melanocortin receptor 5. Description: Agonist activity at human MC5R expressed in HEK293 cells assessed as maximal intracellular cAMP accumulation at 10 uM by fluorescence based analysis relative to control. In kind it is functional, cell-based. The following applies: filed as agonist.
Test [8] has as its target T1, Melanocyte-stimulating hormone receptor. In words: Agonist activity at human MC1R expressed in HEK293 cells assessed as maximal intracellular cAMP accumulation at 10 uM by fluorescence based analysis relative to control. To be noted: filed as agonist. Format: functional, cell-based.
Target sequence in this assay (Q01726 whole entry, looked up): as the sequence (Q01726 whole entry) above
Test [9] concerns the target T2, Melanocortin receptor 3. Description: Agonist activity at human MC3R expressed in HEK293 cells assessed as maximal intracellular cAMP accumulation by fluorescence based analysis. In kind it is functional, cell-based.
Test [10] deals with T2, Melanocortin receptor 3. Description: Agonist activity at human MC3R expressed in HEK293 cells assessed as maximal intracellular cAMP accumulation at 10 uM by fluorescence based analysis relative to control. In kind it is functional, cell-based. The following applies: filed as agonist.
Test [11] addresses T3, Melanocortin receptor 4. Description: Agonist activity at human MC4R expressed in HEK293 cells assessed as maximal intracellular cAMP accumulation by fluorescence based analysis. Format: functional, cell-based.
The target of test [12] is T4, Melanocortin receptor 5. Description: Agonist activity at human MC5R expressed in HEK293 cells assessed as maximal intracellular cAMP accumulation by fluorescence based analysis. In kind it is functional, cell-based.

T3 sequence (P32245 whole entry): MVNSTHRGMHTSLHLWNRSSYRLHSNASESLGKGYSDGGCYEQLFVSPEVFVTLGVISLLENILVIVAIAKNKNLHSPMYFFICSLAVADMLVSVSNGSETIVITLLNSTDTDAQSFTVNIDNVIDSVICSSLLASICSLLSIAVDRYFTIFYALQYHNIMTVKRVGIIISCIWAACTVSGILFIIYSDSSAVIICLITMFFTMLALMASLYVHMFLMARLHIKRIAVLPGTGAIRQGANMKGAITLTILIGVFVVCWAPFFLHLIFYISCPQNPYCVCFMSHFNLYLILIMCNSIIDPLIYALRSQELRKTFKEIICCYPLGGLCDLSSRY
T2 sequence (P41968 whole entry): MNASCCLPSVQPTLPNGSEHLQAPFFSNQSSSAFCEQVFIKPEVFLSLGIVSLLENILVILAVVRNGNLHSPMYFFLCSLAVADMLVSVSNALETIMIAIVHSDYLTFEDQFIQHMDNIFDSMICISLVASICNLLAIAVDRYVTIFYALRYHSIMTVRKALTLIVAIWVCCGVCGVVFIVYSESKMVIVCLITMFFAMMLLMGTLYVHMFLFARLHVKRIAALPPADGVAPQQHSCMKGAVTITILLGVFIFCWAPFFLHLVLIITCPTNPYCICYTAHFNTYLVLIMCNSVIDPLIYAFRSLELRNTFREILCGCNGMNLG
T4 sequence (P33032 whole entry): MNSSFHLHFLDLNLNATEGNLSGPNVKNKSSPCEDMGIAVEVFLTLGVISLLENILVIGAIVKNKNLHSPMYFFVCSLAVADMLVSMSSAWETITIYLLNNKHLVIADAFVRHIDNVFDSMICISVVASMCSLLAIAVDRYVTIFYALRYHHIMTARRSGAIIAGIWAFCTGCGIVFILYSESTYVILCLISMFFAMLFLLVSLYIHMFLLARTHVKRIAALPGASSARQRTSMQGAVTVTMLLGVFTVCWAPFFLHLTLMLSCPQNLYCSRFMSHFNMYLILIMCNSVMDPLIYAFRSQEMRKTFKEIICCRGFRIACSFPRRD

As usually defined, the IC50 is the midpoint of a concentration-inhibition curve. High values mean weaker potency in that assay, low ones greater potency in that assay. As to `CCCC[C@H](NC(C)=O)C(=O)N[C@@H]1C(=O)N[C@@H](Cc2c[nH]cn2)C(=O)N[C@H](Cc2ccccc2)C(=O)N[C@@H](CCCNC(=N)N)C(=O)N[C@@H](Cc2c[nH]c3ccccc23)C(=O)N[C@H](C(N)=O)C(C)(C)SCc2ccc(cc2)CSC1(C)C`, the half-inhibitory concentration (IC50) in [1], in [2], in [3] and in test [4] was greater than 1000 nM in each case.

The term EC50 denotes the concentration that produces a half-maximal response. `CCCC[C@H](NC(C)=O)C(=O)N[C@H]1CSCc2ccccc2CSC(C)(C)[C@@H](C(N)=O)NC(=O)[C@H](Cc2c[nH]c3ccccc23)NC(=O)[C@H](CCCNC(=N)N)NC(=O)[C@@H](Cc2ccccc2)NC(=O)[C@H](Cc2c[nH]cn2)NC1=O`: the Activity was determined as 0% in test [5], 100% in [7], 100% in [8] and 100% in test [10]. Besides, the figures for the EC50 in test [6], in test [9] and in [11] were 6.1 nM, greater than 1000 nM and greater than 1000 nM, respectively. Besides, the IC50 was 44 nM in test [1], 74 nM in test [2], 45.8 nM in [3] and 46 nM in test [4].

With `CCCC[C@H](NC(C)=O)C(=O)N[C@@H]1C(=O)N[C@@H](Cc2c[nH]cn2)C(=O)N[C@H](Cc2ccccc2)C(=O)N[C@@H](CCCNC(=N)N)C(=O)N[C@@H](Cc2c[nH]c3ccccc23)C(=O)N[C@H](C(N)=O)CSCc2ccccc2CSC1(C)C`, the IC50 in test [1] turned out to be 150 nM; in test [2] it was 222 nM; in test [3], 619 nM; in [4], 157 nM.

For `CCCC[C@H](NC(C)=O)C(=O)N[C@H]1CSCc2cccc(c2)CSC[C@@H](C(N)=O)NC(=O)[C@H](Cc2c[nH]c3ccccc23)NC(=O)[C@H](CCCNC(=N)N)NC(=O)[C@@H](Cc2ccccc2)NC(=O)[C@H](Cc2c[nH]cn2)NC1=O`, the figures for the EC50 in test [6], in test [9] and in test [12] were 3 nM, 902 nM and greater than 1000 nM, respectively. The IC50 was found to be 3.5 nM in test [1], 32 nM in [2] and 4.4 nM in test [4].

As to `CCCC[C@H](NC(C)=O)C(=O)N[C@@H]1C(=O)N[C@@H](Cc2c[nH]cn2)C(=O)N[C@H](Cc2ccccc2)C(=O)N[C@@H](CCCNC(=N)N)C(=O)N[C@@H](Cc2c[nH]c3ccccc23)C(=O)N[C@H](C(N)=O)C(C)(C)SCc2ccccc2CSC1(C)C`, the IC50 in [1] is 553 nM; in [2], 452 nM; in test [3], greater than 1000 nM; in test [4] it was 507 nM.

For `CCCC[C@H](NC(C)=O)C(=O)N[C@H]1CSCc2ccc(cc2)CSC(C)(C)[C@@H](C(N)=O)NC(=O)[C@H](Cc2c[nH]c3ccccc23)NC(=O)[C@H](CCCNC(=N)N)NC(=O)[C@@H](Cc2ccccc2)NC(=O)[C@H](Cc2c[nH]cn2)NC1=O`, the EC50 in test [6] stood at 3 nM; in test [9], 246 nM; in test [11], 219 nM; in test [12] it was 48 nM. Further, the Activity in test [7], in [8] and in test [10] was 100% each time. Also, the half-inhibitory concentration (IC50) was 19 nM in test [1], 64 nM in test [2], 57.2 nM in [3] and 69 nM in test [4].

For `CCCC[C@H](NC(C)=O)C(=O)N[C@@H]1C(=O)N[C@@H](Cc2c[nH]cn2)C(=O)N[C@H](Cc2ccccc2)C(=O)N[C@@H](CCCNC(=N)N)C(=O)N[C@@H](Cc2c[nH]c3ccccc23)C(=O)N[C@H](C(N)=O)CSCc2cccc(c2)CSC1(C)C`, the EC50 in test [6] is greater than 1000 nM; in test [9], 9.4 nM; in test [11] it was 618 nM; in test [12] it was 126 nM. The Activity in test [7], in [8] and in [10] was 100% throughout. Further, the IC50 in test [1] amounted to 70 nM; in test [2], 244 nM; in test [3], 628 nM; in test [4] it was 93.5 nM.

For the molecule `CCCC[C@H](NC(C)=O)C(=O)N[C@H]1CSCc2ccccc2CSC[C@@H](C(N)=O)NC(=O)[C@H](Cc2c[nH]c3ccccc23)NC(=O)[C@H](CCCNC(=N)N)NC(=O)[C@@H](Cc2ccccc2)NC(=O)[C@H](Cc2c[nH]cn2)NC1=O`, the 50% effective concentration (EC50) in test [6] is 107 nM; in [9] it was greater than 1000 nM; in test [11] it was 360 nM; in [12], greater than 1000 nM. Further, the Activity in test [7], in test [8] and in test [10] was 100% in each case. Also, the IC50 in test [1] was determined as 275 nM; in [2], 302 nM; in [3] it was 9.1 nM; in test [4] it was 78 nM.

Regarding `CCCC[C@H](NC(C)=O)C(=O)N[C@@H]1C(=O)N[C@@H](Cc2c[nH]cn2)C(=O)N[C@H](Cc2ccccc2)C(=O)N[C@@H](CCCNC(=N)N)C(=O)N[C@@H](Cc2c[nH]c3ccccc23)C(=O)N[C@H](C(N)=O)C(C)(C)SCc2cccc(c2)CSC1(C)C`, the IC50 in test [1] is 450 nM; in [2] it was 450 nM; in test [3], greater than 1000 nM; in test [4], 172 nM.

For `CCCC[C@H](NC(C)=O)C(=O)N[C@H]1CSCc2ccc(cc2)CSC[C@@H](C(N)=O)NC(=O)[C@H](Cc2c[nH]c3ccccc23)NC(=O)[C@H](CCCNC(=N)N)NC(=O)[C@@H](Cc2ccccc2)NC(=O)[C@H](Cc2c[nH]cn2)NC1=O`, the 50% effective concentration (EC50) is 4 nM in [6], 645 nM in test [9] and greater than 1000 nM in [12]. Besides, the IC50 in test [1] was 7.3 nM; in [2], 24 nM; in test [4], 2 nM.

Turning to `CCCC[C@H](NC(C)=O)C(=O)N[C@H]1CSCc2cccc(c2)CSC(C)(C)[C@@H](C(N)=O)NC(=O)[C@H](Cc2c[nH]c3ccccc23)NC(=O)[C@H](CCCNC(=N)N)NC(=O)[C@@H](Cc2ccccc2)NC(=O)[C@H](Cc2c[nH]cn2)NC1=O`, the results for the EC50 in test [6], in test [9] and in [12] were 6.5 nM, 435 nM and greater than 1000 nM, respectively. Also, the IC50 stood at 9 nM in test [1], 71 nM in test [2] and 30 nM in [4].

For `CCCC[C@H](NC(C)=O)C(=O)N[C@@H]1C(=O)N[C@@H](Cc2c[nH]cn2)C(=O)N[C@H](Cc2ccccc2)C(=O)N[C@@H](CCCNC(=N)N)C(=O)N[C@@H](Cc2c[nH]c3ccccc23)C(=O)N[C@H](C(N)=O)CSCc2ccc(cc2)CSC1(C)C`, the IC50 was 227 nM in test [1], greater than 1000 nM in [2], greater than 1000 nM in test [3] and 422 nM in test [4].
